Values after ≈ are worked out from the molar mass of the structure shown. Like-named read-outs stand apart in the source and are kept apart here. One block for each compound: values may come before it.
Columns and labels:
Propionibacterium = test: Antibacterial activity, zone of inhibition; type: cell-based; conditions: 24 h incubation
Experimental: Nutrient Agar (NA-Himedia, HiMedia Laboratories Pvt. Ltd., Mumbai, India) was prepared by dissolving 28.0 g in 1000 mL distilled water, sterilized at 121 °C for 15 min, and poured into sterile Petri plates. Propionibacterium was used for microbial assays. A 24 h pure culture was prepared by suspending the microorganisms in saline solution, streaking onto culture slants, and incubating at 37 °C. Standard solutions, including Clindamycin (25 mg/mL), were prepared in sterile water and stored under refrigeration. Plates were prepared using the pour plate method by pouring melted agar into sterile plates and allowing its solidification before use.
A sterile, non-toxic cotton swab was dipped in the standardized inoculums (turbidity was adjusted to achieve confluent growth on the Petri plate), and the entire plate’s agar surface was streaked with the swab three times, turning the plate at a 60-degree angle between streaking. The streaked inoculums were then allowed to dry for 5–15 min with the lid on. Then, using sterile well punches, a bore was punched on the prepared plates (8 mm). With the assistance of a sterile micropipette, a 10 μL dosage of produced microemulsion and standard medication Clindamycin were injected into each bore in an aseptic environment. Plates were maintained at room temperature for 30 min before being incubated for 24 h at 37 °C. The diameter of the inhibitory zones was measured using a scale in mm.
The antibacterial potential of test compounds was assessed using the mean diameter of the zone of inhibition around the disc in millimeters. The zones of inhibition of the studied microorganisms by the substances were determined on a millimeter scale.

[1] = pKa and percentage ionization (Henderson–Hasselbalch equation); type: physicochemical
Excerpt: One study reported an average pH of 5.2 in psoriatic skin, compared to 5.6 in healthy skin [36]. […] The optimal pH range for topical application is 6–7 to balance efficacy and skin irritation.

[2] = system: L929 (Mouse Connective Cell Line); test: MTT assay (antipsoriatic activity); type: cell-based
Experimental: The L929 mouse connective tissue cell line was received from the National Center for Cell Sciences (NCCS), Pune, India and grown in DMEM media containing 10% fetal bovine serum. The cells were kept at 37 °C in a 5% CO2 incubator and seeded at a density of 1 × 10⁴ cells/mL in culture media for 24 h. To conduct the experiment, 70 μL of cell suspension (1 × 10^4 cells/well) were added to 100 μL of culture media on a 96-well tissue culture plate. Sample was added to wells at varying doses (25, 50, and 100 μg/mL), while control wells contained 0.2% DMSO in PBS with cell culture. All experiments were performed in triplicate to ensure reliability and reproducibility of the results. Control wells were utilized to evaluate cell viability and calculate the percentage of cells that survived after incubation. The cultures were incubated at 37 °C with 5% CO2 for 24 h in a CO2 incubator (Thermo Scientific BB150, Thermo Fisher Scientific Inc., Waltham, MA, USA). After incubation, the media were removed and 20 μL of MTT reagent (5 mg/mL in PBS) was added. The plates were incubated for a further 4 h at 37 °C to allow live cells to convert the MTT into formazan crystals, which were then viewed under a microscope. After removing the medium, 200 μL of DMSO was added and incubated at 37 °C for 10 min while protected from light with aluminum foil. Each sample’s absorbance was measured at 570 nm using an ELISA microplate reader (Benesphera E21, Avantor Performance Materials India Private Limited, Gurgoan, India), with triplicates tested for accuracy.

[3] = previously reported value ref 37; cited from earlier work
[4] = Solubility screening of anthralin in oils, surfactants and co-surfactants; type: physicochemical; conditions: read-out: drug solubility
Experimental: Excess drug was dissolved in 1 mL of the aforementioned oils, surfactant, and co-surfactant, and vortexed continuously for 48 h. The samples were centrifuged at 5000–7000 rpm for 15 min after which they were left to rest for 72 h.

Compound: CCC[C@@H]1C[C@@H](C(=O)N[C@@H]([C@H]2O[C@H](SC)[C@H](O)[C@@H](O)[C@H]2O)[C@H](C)Cl)N(C)C1 [Clindamycin]
zone of inhibition at 25 µg/mL (Propionibacterium; 25 μg/mL): 11.3 ± 1.15 mm | zone of inhibition at 50 µg/mL (Propionibacterium; 50 μg/mL): 13.7 ± 1.15 mm | zone of inhibition at 100 µg/mL (Propionibacterium; 100 μg/mL): 20.7 ± 1.15 mm

percentage ionization ([1]; pH 5.2 (psoriatic skin)): 0.01% | percentage ionization ([1]; pH 5.6 (healthy skin)): 0.03% | solubility at 48 h ([4]; PEG 400, 27 °C, organic solvent or mixture, thermodynamic from solid, in PEG 400, room temperature (27 ± 1 °C)): 14.1 mg/mL (≈ 62.2 mM) | solubility at 48 h ([4]; Span 20, thermodynamic from solid, in Span 20): 4.23 mg/mL (≈ 18.7 mM) | solubility at 48 h ([4]; Transcutol-P, organic solvent or mixture, thermodynamic from solid, in Transcutol-P): 15.6 mg/mL (≈ 68.8 mM) | solubility at 48 h ([4]; Tween 20, thermodynamic from solid, in Tween 20): 11.6 mg/mL (≈ 51.2 mM) | solubility at 48 h ([4]; Tween 80, 27 °C, thermodynamic from solid, in Tween 80, room temperature (27 ± 1 °C)): 56 mg/mL (≈ 248 mM) | solubility at 48 h ([4]; castor oil, oil or lipid, thermodynamic from solid, in castor oil): 23.9 mg/mL (≈ 106 mM) | solubility at 48 h ([4]; ethanol, organic solvent or mixture, thermodynamic from solid, in ethanol): 9.23 mg/mL (≈ 40.8 mM) | solubility at 48 h ([4]; oleic acid, 27 °C, oil or lipid, thermodynamic from solid, in oleic acid, room temperature (27 ± 1 °C)): 44.2 mg/mL (≈ 196 mM) | solubility at 48 h ([4]; olive oil, oil or lipid, thermodynamic from solid, in olive oil): 28.2 mg/mL (≈ 125 mM)
Compound: O=C1c2c(O)cccc2Cc2cccc(O)c21 [Anthralin]
Inhibition % ([2]; L929, 100 µg/mL, 24 h): 60.345% | inhibition at 25 µg/mL ([2]; Mus musculus, L929, 24 h, L929, 25 µg/mL, 24 h): 47.9% | inhibition at 50 µg/mL ([2]; Mus musculus, L929, 24 h, L929, 50 µg/mL, 24 h): 53% | inhibition at 100 µg/mL ([2]; Mus musculus, L929, 24 h, L929, 100 µg/mL, 24 h): 60.3% | viability at 25 µg/mL ([2]; Mus musculus, L929, 25 µg/mL, 24 h): 52.1% | viability at 50 µg/mL ([2]; Mus musculus, L929, 50 µg/mL, 24 h): 47% | viability at 100 µg/mL ([2]; Mus musculus, L929, 100 µg/mL, 24 h): 39.7% | IC50 ([2]; Mus musculus, L929, from linear regression of % inhibition vs. concentration): 36.2 µg/mL (≈ 0.16 mM) | pKa [3]: 9.06

Compound: O=c1[nH]cc(F)c(=O)[nH]1 [Batch 5-FU, 5-flurouracil]
Cell Viability % ([2]; L929, 25 µg/mL, 24 h): 33.90% | Inhibition % ([2]; L929, 25 µg/mL, 24 h): 66.10% | Cell Viability % ([2]; L929, 50 µg/mL, 24 h): 29.87% | Inhibition % ([2]; L929, 50 µg/mL, 24 h): 70.13% | Cell Viability % ([2]; L929, 100 µg/mL, 24 h): 21.00% | Inhibition % ([2]; L929, 100 µg/mL, 24 h): 79.00%
